Experiments:
Echinochloa crusgalli [1] = test: Table 17 field trial, treatment at the 2 leaf stage: weed control; type: in vivo; conditions: 14 days after application
Description: Field trial: Treatment at the 2 leaf stage, evaluation 14 days after the application.

Scirpus juncoides = test: Table 10 greenhouse trial, treatment at the 1-2 leaf stage: weed control; type: in vivo; conditions: 20 days after application
Protocol: (§1) Seeds or rhizome pieces of mono- and dicotyledonous weed plants are placed into sandy loam soil in plastic pots, covered with soil and grown in a greenhouse under good growth conditions (temperature, atmospheric humidity, water supply). Weeds which are encountered in the cultivation of rice are cultivated in pots in which the water level is up to 2 cm over the soil surface. Three weeks after sowing, the test plants are treated at the three-leaf stage. The active compound combinations according to the invention, formulated as wettable powders or emulsion concentrates, and, in parallel experiments, the correspondingly formulated individual active compounds are sprayed onto the green parts of the plants at different dosages using an amount of water of 300 to 600 l/ha (converted), and, after about 3 to 4 weeks of the test plants in the greenhouse under optimum growth conditions (temperature, atmospheric humidity, water supply), the effect of the preparations is evaluated visually in comparison to untreated controls. In the case of rice or weeds which are encountered in the cultivation of rice, the active compounds are also added directly to the water for irrigation (application analogous to the so-called granules application) or sprayed onto plants and added to the water for irrigation. The experiments were designed with several, up to five, repetitions. The herbicidal compositions according to the invention also have good herbicidal post-emergence activity against a broad spectrum of economically important weed grasses and broad-leaved weeds.
(§2) Greenhouse trial: Treatment at the 1-2 leaf stage, evaluation 20 days after the application.

Oryza sativa [2] = test: Table 10 greenhouse trial, treatment at the 1-2 leaf stage: rice damage; type: in vivo; conditions: greenhouse trial, 20 days after application
Protocol: as §1, §2

ECHCO = test: Table 2 field trial, treatment at the 2-3 leaf stage weed grasses: weed control; type: in vivo, Echinochloa colona; conditions: 28 days after application
Protocol: (§6) The examples mentioned below were carried out in the greenhouse, and in some instances, in field trials.

Eleusine indica = test: as above; type: in vivo; conditions: 28 days after application
Protocol: as §6

Leptochloa filiformis = test: Table 2a field trial, treatment at the 2-3 leaf stage weed grasses: weed control; type: in vivo; conditions: 28 days after application
Protocol: as §6

Cyperus irria = test: Table 3 field trial, treatment at the 2 leaf stage weed grasses: weed control; type: in vivo; conditions: 28 days after application
Protocol: as §6

Echinochloa crusgalli [3] = test: Table 18 field trial, treatment at the 1-2 leaf stage: weed control; type: in vivo; conditions: 14 days after application
Description: (§3) Field trial: Treatment at the 1-2 leaf stage, evaluation 14 days after the application.

Oryza sativa [4] = test: Table 18 field trial, treatment at the 1-2 leaf stage: rice damage; type: in vivo; conditions: 14 days after application
Description: as §3

Oryza sativa [5] = test: Table 2 field trial, treatment at the 1-2 leaf stage rice: rice damage; conditions: 28 days after application
Protocol: as §6

Oryza sativa [6] = test: Table 2a field trial, treatment at the 1-2 leaf stage rice: rice damage; conditions: 28 days after application
Protocol: as §6

Oryza sativa [7] = test: Table 3 field trial, treatment at the 4-5 leaf stage (seed rice): rice damage; conditions: 28 days after application
Protocol: as §6

Scirpus maritimus = test: Table 15 greenhouse trial, treatment at the 2-3 leaf stage: weed control; type: in vivo; conditions: 20 days after application
Protocol: as §1

Oryza sativa [8] = test: Table 15 greenhouse trial, treatment at the 2-3 leaf stage: rice damage; type: in vivo; conditions: 20 days after application
Protocol: as §1

Cyperus serotinus = test: Table 16 greenhouse trial, treatment at the 2-3 leaf stage: weed control; type: in vivo; conditions: 20 days after application
Protocol: as §1
(§4) Greenhouse trail: Treatment at the 2-3 leaf stage, evaluation 20 days after the application.

Oryza sativa [9] = test: Table 16 greenhouse trial, treatment at the 2-3 leaf stage: rice damage; type: in vivo; conditions: 20 days after application
Protocol: as §1, §4

Sagittaria pygmaea = test: Table 14 greenhouse trial, treatment at the 3-4 leaf stage: weed control; type: in vivo; conditions: 21 days after application
Protocol: as §1
(§5) Greenhouse trial: Treatment at the 3-4 leaf stage, evaluation 21 days after the application.

Oryza sativa [10] = test: Table 14 greenhouse trial, treatment at the 3-4 leaf stage: rice damage; type: in vivo; conditions: 21 days after application
Protocol: as §1, §5

Cucumis dipsaceus = test: Table 1: weed control by A1*), safener C3-1) and combination; type: in vivo
Protocol: as §6

[11] = system: Oryza sativa (paddy rice); test: Table 1: damage to paddy rice; type: in vivo
Protocol: as §6

C#CCOc1cc(-n2nc(C(C)(C)C)oc2=O)c(Cl)cc1Cl [B51), 5-tert-butyl-3-[2,4-dichloro-5-(prop-2-ynyloxy)-phenyl]-1,3,4-oxadiazol-2(3H)-one]
ECHCG % control (Echinochloa crusgalli [1]; 25 g of ai/ha): 37% | ECHCG % control (Echinochloa crusgalli [1]; 50 g of ai/ha): 63% | ECHCG % control (Echinochloa crusgalli [1]; 100 g of ai/ha): 63% | ECHCG % control (Echinochloa crusgalli [1]; 200 g of ai/ha): 80%

COc1cc(OC)nc(NC(=O)NS(=O)(=O)Cc2ccccc2C(=O)O)n1 [B58), 2-[[[[[(4,6-dimethoxy-2-pyrimidinyl)amino]carbonyl]-amino]sulfonyl]methyl]benzoic acid]
SCIJU % control (Scirpus juncoides; 7.5 g of ai/ha): 35% | SCIJU % control (Scirpus juncoides; 15 g of ai/ha): 40% | SCIJU % control (Scirpus juncoides; 30 g of ai/ha): 55% | SCIJU % control (Scirpus juncoides; 60 g of ai/ha): 60% | ORYSW % damage (Oryza sativa [2]; 7.5 g of ai/ha): 0% | ORYSW % damage (Oryza sativa [2]; 15 g of ai/ha): 0% | ORYSW % damage (Oryza sativa [2]; 30 g of ai/ha): 2% | ORYSW % damage (Oryza sativa [2]; 60 g of ai/ha): 5%

COc1cc(OC)nc(NC(=O)NS(=O)(=O)c2c(C(=O)O)cnn2C)n1 [B59), 5-[[[[(4,6-dimethoxy-2-pyrimidinyl)amino]carbonyl]-amino]sulfonyl]-1-methyl-1H-pyrazol-4-carboxylic acid]
SCIJU % control (Scirpus juncoides; 7.5 g of ai/ha): 50% | SCIJU % control (Scirpus juncoides; 15 g of ai/ha): 55% | SCIJU % control (Scirpus juncoides; 30 g of ai/ha): 60% | ORYSW % damage (Oryza sativa [2]; 7.5 g of ai/ha): 0% | ORYSW % damage (Oryza sativa [2]; 15 g of ai/ha): 0% | ORYSW % damage (Oryza sativa [2]; 30 g of ai/ha): 2%

CCOc1ccccc1OS(=O)(=O)NC(=O)Nc1nc(OC)cc(OC)n1 [B63a), ethoxysulfuron]
ECHCO % control (ECHCO; 45 g of ai/ha): 0% | ECHCO % control (ECHCO; 60 g of ai/ha): 0% | ELEIN % control (Eleusine indica; 45 g of ai/ha): 0% | ELEIN % control (Eleusine indica; 60 g of ai/ha): 0% | LEFFI % control (Leptochloa filiformis; 45 g of ai/ha): 0% | LEFFI % control (Leptochloa filiformis; 60 g of ai/ha): 0% | CYPIR % control (Cyperus irria; 22.5 g of ai/ha): 60% | CYPIR % control (Cyperus irria; 45 g of ai/ha): 95% | ECHCG % control (Echinochloa crusgalli [3]; 5 g of ai/ha): 7% | ECHCG % control (Echinochloa crusgalli [3]; 10 g of ai/ha): 7% | ORYSW % damage (Oryza sativa [4]; 5 g of ai/ha): 7% | ORYSW % damage (Oryza sativa [4]; 10 g of ai/ha): 7% | ORYSW % damage (Oryza sativa [5]; 45 g of ai/ha): 10% | ORYSW % damage (Oryza sativa [5]; 60 g of ai/ha): 10% | ORYSW % damage (Oryza sativa [6]; 45 g of ai/ha): 10% | ORYSW % damage (Oryza sativa [6]; 60 g of ai/ha): 10% | ORYSW % damage (Oryza sativa [7]; 22.5 g of ai/ha): 0% | ORYSW % damage (Oryza sativa [7]; 45 g of ai/ha): 0%

COc1cc(OC)nc(NC(=O)NS(=O)(=O)c2c(-c3nnn(C)n3)cnn2C)n1 [B64), azimsulfuron]
SCIMA % control (Scirpus maritimus; 5 g of ai/ha): 78% | SCIMA % control (Scirpus maritimus; 9 g of ai/ha): 80% | SCIMA % control (Scirpus maritimus; 18 g of ai/ha): 83% | SCIMA % control (Scirpus maritimus; 37 g of ai/ha): 85% | ORYSW % damage (Oryza sativa [8]; 5 g of ai/ha): 3% | ORYSW % damage (Oryza sativa [8]; 9 g of ai/ha): 8% | ORYSW % damage (Oryza sativa [8]; 18 g of ai/ha): 10% | ORYSW % damage (Oryza sativa [8]; 37 g of ai/ha): 10%

COc1cc(OC)nc(Oc2cccc(Oc3nc(OC)cc(OC)n3)c2C(=O)ON=C(c2ccccc2)c2ccccc2)n1 [B72), pyribenzoxim]
CYPSE % control (Cyperus serotinus; 18.75 g of ai/ha): 25% | CYPSE % control (Cyperus serotinus; 37.5 g of ai/ha): 35% | CYPSE % control (Cyperus serotinus; 75 g of ai/ha): 60% | ORYSW % damage (Oryza sativa [9]; 18.75 g of ai/ha): 3% | ORYSW % damage (Oryza sativa [9]; 37.5 g of ai/ha): 8% | ORYSW % damage (Oryza sativa [9]; 75 g of ai/ha): 8%

CC1=C(c2ccccc2)C(=O)N(C(C)(C)c2cc(Cl)cc(Cl)c2)CO1 [B73), oxaziclomefone]
SAGPY % control (Sagittaria pygmaea; 50 g of ai/ha): 10% | SAGPY % control (Sagittaria pygmaea; 100 g of ai/ha): 15% | SAGPY % control (Sagittaria pygmaea; 200 g of ai/ha): 20% | ORYSW % damage (Oryza sativa [10]; 50 g of ai/ha): 0% | ORYSW % damage (Oryza sativa [10]; 100 g of ai/ha): 0% | ORYSW % damage (Oryza sativa [10]; 200 g of ai/ha): 5%

CCOC(=O)C1=NOC(c2ccccc2)(c2ccccc2)C1 [C3-1), ethyl 5,5-diphenyl-2-isoxazoline-3-carboxylate]
CUMDI % control (Cucumis dipsaceus; 15 g of ai/ha): 0% | CUMDI % control (Cucumis dipsaceus; 30 g of ai/ha): 0% | CUMDI % control (Cucumis dipsaceus; 60 g of ai/ha): 0% | ORYSW % damage ([11]; 15 g of ai/ha): 0% | ORYSW % damage ([11]; 30 g of ai/ha): 0% | ORYSW % damage ([11]; 60 g of ai/ha): 0%

Source: patent US6864217B2, “Herbicidal compositions with substituted phenylsulfonylureas for controlling weeds in rice” (Hoechst Schering AgrEvo GmbH, priority 1998, dated 2005)
